Assay results reported in publication PMC7034075, “Exploring structure-activity relationship of S-substituted 2-mercaptoquinazolin-4(3H)-one including 4-ethylbenzenesulfonamides as human carbonic anhydrase inhibitors” (Journal of Enzyme Inhibition and Medicinal Chemistry, 2020).
Like-named read-outs stand apart in the source and are kept apart here.

Tests used:
Assay in all cases: stopped-flow CO2 hydrase assay
Format in all cases: biochemical
hCA XII = biological target: T1, hCA XII (Homo sapiens, UniProt O43570)
T1 construct: gene CA12; recombinant, obtained in-house
T1 sequence (O43570 25-354): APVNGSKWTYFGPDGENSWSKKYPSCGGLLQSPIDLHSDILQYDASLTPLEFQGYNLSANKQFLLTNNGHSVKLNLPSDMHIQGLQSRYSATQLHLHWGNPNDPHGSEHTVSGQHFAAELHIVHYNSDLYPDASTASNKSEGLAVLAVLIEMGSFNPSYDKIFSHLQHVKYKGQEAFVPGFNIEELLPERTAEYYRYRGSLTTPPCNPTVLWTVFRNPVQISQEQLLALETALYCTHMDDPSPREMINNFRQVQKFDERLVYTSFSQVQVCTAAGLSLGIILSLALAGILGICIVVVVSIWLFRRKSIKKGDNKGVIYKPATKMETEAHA
Text: stopped-flow CO2 hydrase assay on hCA XII

hCA IX = biological target: T2, hCA IX (Homo sapiens, UniProt Q16790)
T2 construct: gene CA9; recombinant, obtained in-house
Text: stopped-flow CO2 hydrase assay on hCA IX

hCA I = biological target: T3, hCA I (Homo sapiens, UniProt P00915)
T3 construct: gene CA1; recombinant, obtained in-house
T3 sequence (P00915 2-261): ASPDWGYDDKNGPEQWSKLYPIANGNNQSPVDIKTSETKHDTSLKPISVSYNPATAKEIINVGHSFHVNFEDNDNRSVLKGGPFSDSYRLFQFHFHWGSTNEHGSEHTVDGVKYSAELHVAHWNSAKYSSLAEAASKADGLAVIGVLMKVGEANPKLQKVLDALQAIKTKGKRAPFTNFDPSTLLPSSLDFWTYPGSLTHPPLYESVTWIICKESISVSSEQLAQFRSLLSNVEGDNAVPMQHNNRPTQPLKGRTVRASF
Text: stopped-flow CO2 hydrase assay on hCA I

hCA II = biological target: T4, hCA II (Homo sapiens, UniProt P00918)
T4 construct: gene CA2; recombinant, obtained in-house
Text: stopped-flow CO2 hydrase assay on hCA II

[1] = CO2 hydration, mean of […] assays

| Ki (hCA XII) | Ki (hCA IX) | Ki (hCA XII; [1]) | Ki (hCA IX; [1]) | Ki (hCA I) | Ki (hCA II) | Structure (SMILES) |
| --- | --- | --- | --- | --- | --- | --- |
| 3.1 nM | 9.5 nM | – | – | – | – | CSc1nc2ccccc2c(=O)n1CCc1ccc(S(N)(=O)=O)cc1 [compound 2, 4-(2-(2-(Methylthio)-4-oxoquinazolin-3(4H)-yl)ethyl)benzenesulfonamide] |
| 3.9 nM | 7.1 nM | – | – | – | – | CCSc1nc2ccccc2c(=O)n1CCc1ccc(S(N)(=O)=O)cc1 [compound 3, 4-(2-(2-(Ethylthio)-4-oxoquinazolin-3(4H)-yl)ethyl)benzenesulfonamide] |
| 8.6 nM | 12.6 nM | – | – | – | – | N#CCSc1nc2ccccc2c(=O)n1CCc1ccc(S(N)(=O)=O)cc1 [compound 4, 4-(2-(2-((Cyanomethyl)thio)-4-oxoquinazolin-3(4H)-yl)ethyl)benzenesulfonamide] |
| 38.4 nM | 50.7 nM | – | – | – | – | NS(=O)(=O)c1ccc(CCn2c(SCc3ccccc3)nc3ccccc3c2=O)cc1 [compound 5, 4-(2-(2-(Benzylthio)-4-oxoquinazolin-3(4H)-yl)ethyl)benzenesulfonamide] |
| 57 nM | 64.1 nM | – | – | – | – | NS(=O)(=O)c1ccc(CCn2c(SCc3ccc(Br)cc3)nc3ccccc3c2=O)cc1 [compound 6, 4-(2-(2-((4-Bromobenzyl)thio)-4-oxoquinazolin-3(4H)-yl)ethyl)benzenesulfonamide] |
| 65.6 nM | 34.2 nM | – | – | – | – | NS(=O)(=O)c1ccc(CCn2c(SCc3ccc(Cl)cc3)nc3ccccc3c2=O)cc1 [compound 7, 4-(2-(2-((4-Chlorobenzyl)thio)-4-oxoquinazolin-3(4H)-yl)ethyl)benzenesulfonamide] |
| 17.6 nM | 47.3 nM | – | – | – | – | N#Cc1ccc(CSc2nc3ccccc3c(=O)n2CCc2ccc(S(N)(=O)=O)cc2)cc1 [compound 8, 4-(2-(2-((4-Cyanobenzyl)thio)-4-oxoquinazolin-3(4H)-yl)ethyl)benzenesulfonamide] |
| – | 28.9 nM | 17.2 nM | – | – | – | NS(=O)(=O)c1ccc(CCn2c(SCc3ccc(F)cc3)nc3ccccc3c2=O)cc1 [compound 9, 4-(2-(2-((4-Fluorobenzyl)thio)-4-oxoquinazolin-3(4H)-yl)ethyl)benzenesulfonamide] |
| 28.2 nM | 57.1 nM | – | – | – | – | Cc1ccc(CSc2nc3ccccc3c(=O)n2CCc2ccc(S(N)(=O)=O)cc2)cc1 [compound 10, 4-(2-(2-((4-Methylbenzyl)thio)-4-oxoquinazolin-3(4H)-yl)ethyl)benzenesulfonamide] |
| 25.6 nM | – | – | 19.3 nM | – | – | NS(=O)(=O)c1ccc(CCn2c(SCc3ccc([N+](=O)[O-])cc3)nc3ccccc3c2=O)cc1 [compound 11, 4-(2-(2-((4-Nitrobenzyl)thio)-4-oxoquinazolin-3(4H)-yl)ethyl)benzenesulfonamide] |
| 20.2 nM | 22.4 nM | – | – | 532 nM | – | NS(=O)(=O)c1ccc(CCn2c(SCCN3CCCCC3)nc3ccccc3c2=O)cc1 [compound 12, 4-(2-(4-Oxo-2-((2-(piperidin-1-yl)ethyl)thio)quinazolin-3(4H)-yl)ethyl)benzenesulfonamide] |
| 71.4 nM | 93.6 nM | – | – | 321 nM | 86.6 nM | NS(=O)(=O)c1ccc(CCn2c(SCCCN3C(=O)c4ccccc4C3=O)nc3ccccc3c2=O)cc1 [compound 13, 4-(2-(2-((3-(1,3-Dioxoisoindolin-2-yl)propyl)thio)-4-oxoquinazolin-3(4H)-yl)ethyl)benzenesulfonamide] |
